# Assay results reported in patent publication US10857136B2, “Compounds for use in the prevention and/or treatment of non-alcoholic fat liver disease and non-alcoholic steatohepatitis” (SJT MOLECULAR RESEARCH, SL, priority 2017, dated 2020).
# Tests used:
# Format in all cases: in vivo
# [1] = system: DIO-NASH mice (C57Bl/6J male mice); experiment: NAFLD activity score (NAS) of liver biopsies pre and post study in DIO-NASH mice; conditions: 50 mg/kg, p.o., b.i.d., 8 weeks, score range 0-8
# Method: Non-alcoholic fat liver disease (NAFLD) activity score or NAS was evaluated by measurements of steatosis, lobular inflammation, ballooning degeneration and […] of the liver.
# Total NAS score represents the sum of scores for steatosis, inflammation, and ballooning, and ranges from 0-8 as follows:
# The % of steatosis degree refers to the amount of surface area of the sample involved by steatosis as evaluated on low to medium power examination.
# The value given to measure inflammation corresponds to the number of inflammatory foci per field using a 200× magnification. A focus is defined as a cluster, not a row, of >3 inflammatory cells. Acidophil bodies are not included in the inflammatory assessment.
# The ballooning degeneration value is measured by the amount of balloon cells, corresponding to degenerated hepatocytes with cleared cytoplasm, enlargement, swelling, rounding and reticulated cytoplasm. […]
# Liver samples were fixed in formalin, paraffin embedded, and sections were stained with hematoxylin and eosin (H&E) and Sirius Red. Samples are scored for NAS and fibrosis using of the clinical criteria outlined by Kleiner et al. 2005. […]
# [2] = system: DIO-NASH mice (C57Bl/6J male mice); experiment: Triglycerides and cholesterol liver content, 8 weeks assay in DIO-NASH mice; conditions: 50 mg/kg, p.o., b.i.d., vs DIO-NASH vehicle
# Text: The DIO-NASH mouse model is fed a high fat diet that results on non-alcoholic fat liver disease and are based on C57Bl/6J mice put on a 40% high fat diet prior to the assays. For the assessment of effect of the compounds of the invention in liver lipid content in non-alcoholic fat liver disease, 34 C57Bl/6J male mice (5-week-old at delivery), obtained from Janvier, France, were used. The DIO-NASH mice group were put on high fat diet (40% AMLN diet, D09100301 Research Diets, USA) and a control group (LEAN-CHOW) was put on a regular chow diet (Altromin 1324, Brogaarden, Denmark) for 35 weeks prior to the study.
# To assess the effect of compound 4a on hepatic triglyceride or cholesterol content in animals with non-alcoholic fat liver disease, DIO-NASH mice (C57Bl/6J male mice) were treated with a hydrochloride salt of compound 4a during 8 weeks (50 mg/kg, p.o., b.i.d.), versus a pathological control of DIO-NASH mice and a non-pathological control LEAN-CHOW mice, both treated with the vehicle (0.9% NaCl). […]
# The triglyceride content in liver was determined using the Triglyceride reagent (Cat. no. 22-045-795, Roche Diagnostics, Germany) on a Cobas™ C-501 autoanalyzer. Homogenized liver tissue was heated to 80-100° C. twice, centrifuged in a microcentrifuge and the triglyceride content was measured in the supernatant.
# [3] = system: DIO-NASH mice (C57Bl/6J male mice); experiment: Absolute and relative body weight, 8 weeks assay in DIO-NASH mice; conditions: 50 mg/kg, p.o., b.i.d., statistics at day 54, vs DIO-NASH vehicle
# Method: The assay was carried out to evaluate the effect of the compounds of the invention on body weight of animals with non-alcoholic fat liver disease (DIO-NASH mice). For this assay, the effect of compound 4a in absolute and relative body weight was evaluated. DIO-NASH mice (C57Bl/6J male mice) were treated with a hydrochloride salt of compound 4a during 8 weeks (50 mg/kg, p.o., b.i.d.), versus a pathological control of DIO-NASH mice and a non-pathological control LEAN-CHOW mice, both treated with the vehicle (0.9% NaCl). The DIO-NASH mice group were put on high fat diet (40% AMLN diet, D09100301 Research Diets, USA) and a control group (LEAN-CHOW) was put on a regular chow diet (Altromin 1324, Brogaarden, Denmark) for 35 weeks prior to the study.
# Body weight of for each of the groups taken on a daily basis. The animals were kept under the same conditions were used as in example 2.2.
# [4] = system: DIO mice (C57Bl/6J male mice); experiment: Liver weight, 36 days assay in DIO mice; conditions: 50 mg/kg orally twice daily, after 36 days, vs saline control and metformin 150 mg/kg
# Method: To assess the performance of the compounds disclosed decreasing liver overweight, DIO mice (C57Bl/6J male mice) were treated with compounds 4a and 5a during 36 days, versus a control of DIO mice treated with vehicle (0.9% NaCl) and DIO mice treated with Metformin as a positive control.
# For the assessment, 60 C57Bl/6J male mice (16-week-old at delivery and 40 g of average weight), obtained from Charles River France, were put on high fat diet for 10 weeks. The animals were housed in ventilated and enriched housing cages (310×125×127 mm^3) throughout the experimental phase. Animals' cages litters were changed at least once a week. Mice were housed in groups of 10 mice on a normal 12 hours light cycle (at 08:00 pm lights were switched off), at 22±2° C. and 50±10% relative humidity. After reception, mice were maintained for three additional acclimation weeks. During the whole test (acclimation+treatment phase) a high fat diet (D12492; purchased from Research Diet Inc 60% fat) and tap water were provided ad libitum.
# After the acclimation period, mice were fasted for 6 hours and blood glucose and plasma insulin were measured. Ten animals, those with lower blood glucose/plasma insulin, were discarded from the study. Then, the others were randomized into 5 homogenous groups (n=10 mice per group) according to their blood glucose/plasma insulin levels (HOMA-IR) and body weight. […]
smiles,measurement,setting,value
"COc1ccc(-c2nc(C(=O)NCCN)cc3c2[nH]c2ccccc23)cc1 [Compound 4a, N(-ethylamine)-1-benzosubstituted-β-carboline-3-carboxamide]",NAS score change of the liver biopsy pre and post study,[1],generally reduced the NAS score
same,liver cholesterol levels,[2],reduced liver cholesterol levels
same,liver triglyceride levels,[2],reduced liver triglyceride levels
same,absolute body weight,[3],reduced body weight
same,relative body weight versus the body weight at the start of the treatment (day 0 is 100%),[3],reduced relative body weight significantly
same,liver weight (liver overweight),[4],lower liver weight than either mice treated with metformin or than the control animals
